Source: patent US8404708B2, “Dual NK1/NK3 receptor antagonists” (Hoffmann-La Roche Inc., priority 2004, dated 2013)
pKi: −log10 of the molar value. Where two headings read alike, the source gives them in different places.

Key:
[1] = biological target: human NK1 receptor (Homo sapiens, UniProt P25103); test: NK1 receptor binding, [3H]substance P displacement, CHO cell membranes; details: for pKi: first value of the cell pKi NK1/NK3, human NK1 receptor, [3H]substance P; for Ki: first value of the cell NK1/NK3, read-out: pKi NK1 (converted)
[2] = biological target: T1, Recombinant human NK3 (hNK3) receptor (Homo sapiens, UniProt P29371); test: NK3 receptor binding, [3H]SR142801 displacement, membrane preparations; details: for pKi: second value of the cell pKi NK1/NK3, hNK3 receptor, [3H]SR142801; for Ki: second value of the cell NK1/NK3, read-out: pKi NK3 (converted)
T1 construct: expressed in transfected cells
T1 sequence (P29371 1-465): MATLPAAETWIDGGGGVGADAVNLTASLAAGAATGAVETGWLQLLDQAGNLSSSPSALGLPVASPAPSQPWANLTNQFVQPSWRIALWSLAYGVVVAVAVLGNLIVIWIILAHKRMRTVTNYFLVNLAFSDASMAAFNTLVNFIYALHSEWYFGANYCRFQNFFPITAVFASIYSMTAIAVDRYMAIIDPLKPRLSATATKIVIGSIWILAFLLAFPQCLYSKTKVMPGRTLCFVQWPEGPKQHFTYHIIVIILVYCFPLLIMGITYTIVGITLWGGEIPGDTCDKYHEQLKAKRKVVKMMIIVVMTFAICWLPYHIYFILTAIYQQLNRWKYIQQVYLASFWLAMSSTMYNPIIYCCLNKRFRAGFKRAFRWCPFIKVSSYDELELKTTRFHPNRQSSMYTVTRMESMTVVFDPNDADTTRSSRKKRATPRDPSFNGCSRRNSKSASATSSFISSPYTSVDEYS
Experimental: Non specific binding was determined using 10 μM SB222200. Assay buffer consisted of Tris-HCl (50 mM, pH 7.4), BSA (0.1%), MnCl2 (4 mM) and phosphoramidon (1 μM). Membrane preparations of hNK3 receptors (approximately 2.5 μg/well in a 96 well plate) were used to initiate the incubation for 90 min at room temperature. This assay was terminated by rapid filtration under vacuum through GF/C filters, presoaked for 90 min with PEI (0.3%), with 3×0.5 ml washes of ice-cold Tris buffer (50 mM, pH 7.4) containing 0.1% BSA. The radioactivity retained on the filters was measured by scintillation counting. All assays were performed in duplicate in at least two separate experiments.

Chain of human NK1 receptor (P25103 whole entry): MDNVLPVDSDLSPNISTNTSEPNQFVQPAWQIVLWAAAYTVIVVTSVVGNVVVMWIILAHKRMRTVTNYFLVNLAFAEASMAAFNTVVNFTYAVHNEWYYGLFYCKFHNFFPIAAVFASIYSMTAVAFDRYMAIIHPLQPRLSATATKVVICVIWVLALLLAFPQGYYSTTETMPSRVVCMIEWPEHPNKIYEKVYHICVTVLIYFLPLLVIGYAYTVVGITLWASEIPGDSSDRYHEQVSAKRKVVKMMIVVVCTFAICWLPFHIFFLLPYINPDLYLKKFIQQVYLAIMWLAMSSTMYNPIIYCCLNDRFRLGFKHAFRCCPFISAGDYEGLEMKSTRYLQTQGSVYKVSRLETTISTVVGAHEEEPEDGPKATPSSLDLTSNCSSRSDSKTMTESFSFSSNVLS

| Structure (SMILES) | pKi [1] | pKi [2] | Ki [1] | Ki [2] |
| --- | --- | --- | --- | --- |
| CN(C(=O)C(C)(C)c1cc(Cl)cc(OC(F)F)c1)c1cnc(N2C[C@H](O)C[C@H]2CO)cc1-c1ccccc1Cl [Example 35, (2S,4R)-2-(3-Chloro-5-difluoromethoxy-phenyl)-N-[4-(2-chloro-phenyl)-6-(4-hydroxy-2-hydroxymethyl-pyrrolidin-1-yl)-pyridin-3-yl]-N-methyl-isobutyramide] | 8.71 | 9.26 |  |  |
| Cc1ccccc1-c1cc(N2CC(=O)C[C@H]2CO)ncc1N(C)C(=O)C(C)(C)c1cc(C(F)(F)F)cc(C(F)(F)F)c1 [Example 295, (S)-2-(3,5-Bis-trifluoromethyl-phenyl)-N-[6-(2-hydroxymethyl-4-oxo-pyrrolidin-1-yl)-4-o-tolyl-pyridin-3-yl]-N-methyl-isobutyramide] |  |  | 1.55 nM | 1.66 nM |
| CN(C(=O)C(C)(C)c1cc(C(F)(F)F)cc(C(F)(F)F)c1)c1cnc(N2CC[C@H](O)[C@H]2CO)cc1-c1cc(F)ccc1F [Example 277, (2R,3S)-2-(3,5-Bis-trifluoromethyl-phenyl)-N-[4-(2,5-difluoro-phenyl)-6-(3-hydroxy-2-hydroxymethyl-pyrrolidin-1-yl)-pyridin-3-yl]-N-methyl-isobutyramide] |  |  | 1.48 nM | 2.45 nM |
| Cc1ccc(F)cc1-c1cc(N(CCO)CCO)ncc1N(C)C(=O)C(C)(C)c1cc(C(F)(F)F)cc(C(F)(F)F)c1 [Example 128, N-[6-[Bis-(2-hydroxy-ethyl)-amino]-4-(5-fluoro-2-methyl-phenyl)-pyridin-3-yl]-2-(3,5-bis-trifluoromethyl-phenyl)-N-methyl-isobutyramide] | 8.58 | 8.25 |  |  |
| CC(=O)N(C)[C@@H]1CCN(c2cc(-c3ccc(F)cc3C)c(N(C)C(=O)C(C)(C)c3cc(C(F)(F)F)cc(C(F)(F)F)c3)cn2)C1 [Example 101, (R)-N-[6-[3-(Acetyl-methyl-amino)-pyrrolidin-1-yl]-4-(4-fluoro-2-methyl-phenyl)-pyridin-3-yl]-2-(3,5-bis-trifluoromethyl-phenyl)-N-methyl-isobutyramide] | 8.77 | 8.03 |  |  |
| Cc1ccccc1-c1cc(N2CCC[C@@H]2CO)ncc1N(C)C(=O)C(C)(C)c1cc(C(F)(F)F)cc(C(F)(F)F)c1 [Example 168, (R)-2-(3,5-Bis-trifluoromethyl-phenyl)-N-[6-(2-hydroxymethyl-pyrrolidin-1-yl)-4-o-tolyl-pyridin-3-yl]-N-methyl-isobutyramide] | 8.68 | 8.00 |  |  |
| CN(C(=O)C(C)(C)c1cc(C(F)(F)F)cc(C(F)(F)F)c1)c1cnc(N2C[C@@H](O)C[C@H]2CO)cc1-c1ccc(F)cc1F [Example 237, (2S,4S)-2-(3,5-Bis-trifluoromethyl-phenyl)-N-[4-(2,4-difluoro-phenyl)-6-(4-hydroxy-2-hydroxymethyl-pyrrolidin-1-yl)-pyridin-3-yl]-N-methyl-isobutyramide] |  |  | 1.02 nM | 7.76 nM |
| CCN(C(C)=O)[C@@H]1CCN(c2cc(-c3ccc(F)cc3C)c(N(C)C(=O)C(C)(C)c3cc(C(F)(F)F)cc(C(F)(F)F)c3)cn2)C1 [Example 102, (R)-N-[6-[3-(Acetyl-ethyl-amino)-pyrrolidin-1-yl]-4-(4-fluoro-2-methyl-phenyl)-pyridin-3-yl]-2-(3,5-bis-trifluoromethyl-phenyl)-N-methyl-isobutyramide] | 8.71 | 7.88 |  |  |
| Cc1ccccc1-c1cc(N2CC[C@H](O)[C@@H](CO)C2)ncc1N(C)C(=O)C(C)(C)c1cc(C(F)(F)F)cc(C(F)(F)F)c1 (racemic) [Example 191, (3RS,4SR)-2-(3,5-Bis-trifluoromethyl-phenyl)-N-(4-hydroxy-3-hydroxymethyl-4′-o-tolyl-3,4,5,6-tetrahydro-2H-[1,2′]bipyridinyl-5′-yl)-N-methyl-isobutyramide] | 8.69 | 7.61 |  |  |
| Cc1ccccc1-c1cc(N2CCC[C@H]2CO)ncc1N(C)C(=O)C(C)(C)c1cc(F)cc(C(F)(F)F)c1 [Example 13, (S)-2-(3-Fluoro-5-trifluoromethyl-phenyl)-N-[6-(2-hydroxymethyl-pyrrolidin-1-yl)-4-o-tolyl-pyridin-3-yl]-N-methyl-isobutyramide] | 8.66 | 8.81 |  |  |
| CN(C(=O)C(C)(C)c1cc(C(F)(F)F)cc(C(F)(F)F)c1)c1cnc(N(CCO)CCO)cc1-c1ccccc1Br [Example 134, N-[6-[Bis-(2-hydroxy-ethyl)-amino]-4-(2-bromo-phenyl)-pyridin-3-yl]-2-(3,5-bis-trifluoromethyl-phenyl)-N-methyl-isobutyramide] | 8.65 | 8.66 |  |  |
| CN(C(=O)C(C)(C)c1cc(C(F)(F)F)cc(C(F)(F)F)c1)c1cnc(N2C[C@H](O)C[C@H]2CO)cc1-c1ccccc1CO [Example 225, (2S,4R)-2-(3,5-Bis-trifluoromethyl-phenyl)-N-[6-(4-hydroxy-2-hydroxymethyl-pyrrolidin-1-yl)-4-(2-hydroxymethyl-phenyl)-pyridin-3-yl]-N-methyl-isobutyramide] |  |  | 1.66 nM | 2.57 nM |
| CCCCCN(CCO)c1cc(-c2ccccc2Cl)c(N(C)C(=O)C(C)(C)c2cc(C(F)(F)F)cc(C(F)(F)F)c2)cn1 [Example 149, 2-(3,5-Bis-trifluoromethyl-phenyl)-N-{4-(2-chloro-phenyl)-6-[(2-hydroxy-ethyl)-pentyl-amino]-pyridin-3-yl}-N-methyl-isobutyramide] | 8.89 | 8.21 |  |  |
| CN(C(=O)C(C)(C)c1cc(C(F)(F)F)cc(C(F)(F)F)c1)c1cnc(N2C[C@H](O)C[C@H]2CO)cc1-c1ccc(F)cc1F [Example 220, (2S,4R)-2-(3,5-Bis-trifluoromethyl-phenyl)-N-[4-(2,4-difluoro-phenyl)-6-(4-hydroxy-2-hydroxymethyl-pyrrolidin-1-yl)-pyridin-3-yl]-N-methyl-isobutyramide] |  |  | 1.51 nM | 6.61 nM |

The next lines start with the values.

| pKi [1] | pKi [2] | Ki [1] | Ki [2] | Structure (SMILES) |
| --- | --- | --- | --- | --- |
|  |  | 2.29 nM | 2.4 nM | CN(C(=O)C(C)(C)c1cc(C(F)(F)F)cc(C(F)(F)F)c1)c1cnc(N2CC[C@H](O)[C@H]2CO)cc1-c1ccc(Cl)c(Cl)c1 [Example 268, (2R,3S)-2-(3,5-Bis-trifluoromethyl-phenyl)-N-[4-(3,4-dichloro-phenyl)-6-(3-hydroxy-2-hydroxymethyl-pyrrolidin-1-yl)-pyridin-3-yl]-N-methyl-isobutyramide] |
| 8.61 | 8.25 |  |  | CN(C(=O)C(C)(C)c1cc(C(F)(F)F)cc(C(F)(F)F)c1)c1cnc(N[C@H]2CC[C@H](O)CC2)cc1-c1ccc(Cl)cc1Cl [Example 91, trans-2-(3,5-Bis-trifluoromethyl-phenyl)-N-[4-(2,4-dichloro-phenyl)-6-(4-hydroxy-cyclohexylamino)-pyridin-3-yl]-N-methyl-isobutyramide] |
| 8.87 | 7.98 |  |  | C[C@@H](CO)Nc1cc(-c2ccccc2Cl)c(N(C)C(=O)C(C)(C)c2cc(C(F)(F)F)cc(C(F)(F)F)c2)cn1 [Example 79, (S)-2-(3,5-Bis-trifluoromethyl-phenyl)-N-[4-(2-chloro-phenyl)-6-(2-hydroxy-1-methyl-ethylamino)-pyridin-3-yl]-N-methyl-isobutyramide] |
| 9.14 | 7.58 |  |  | C[C@H](O)CNc1cc(-c2ccccc2Cl)c(N(C)C(=O)C(C)(C)c2cc(C(F)(F)F)cc(C(F)(F)F)c2)cn1 [Example 72, (S)-2-(3,5-Bis-trifluoromethyl-phenyl)-N-[4-(2-chloro-phenyl)-6-(2-hydroxy-propylamino)-pyridin-3-yl]-N-methyl-isobutyramide] |
| 8.82 | 8.40 |  |  | CN(C(=O)C(C)(C)c1cc(C(F)(F)F)cc(C(F)(F)F)c1)c1cnc(N2CC[C@H](O)C[C@@H]2CO)cc1-c1ccccc1Cl (racemic) [Example 189, (2RS,4SR)-2-(3,5-Bis-trifluoromethyl-phenyl)-N-[4′-(2-chloro-phenyl)-4-hydroxy-2-hydroxymethyl-3,4,5,6-tetrahydro-2H-[1,2′]bipyridinyl-5′-yl]-N-methyl-isobutyramide] |
| 8.43 | 7.61 |  |  | CN(C(=O)C(C)(C)c1cc(C(F)(F)F)cc(C(F)(F)F)c1)c1cnc(N2CCC(CO)C2)cc1-c1ccccc1Cl (racemic) [Example 171, (RS)-2-(3,5-Bis-trifluoromethyl-phenyl)-N-[4-(2-chloro-phenyl)-6-(3-hydroxymethyl-pyrrolidin-1-yl)-pyridin-3-yl]-N-methyl-isobutyramide] |
| 8.79 | 8.84 |  |  | CN(C(=O)C(C)(C)c1cc(C(F)(F)F)cc(C(F)(F)F)c1)c1cnc(N2C[C@H](O)C[C@H]2CO)cc1-c1ccc(Cl)cc1Cl [Example 136, (2S,4R)-2-(3,5-Bis-trifluoromethyl-phenyl)-N-[4-(2,4-dichloro-phenyl)-6-(4-hydroxy-2-hydroxymethyl-pyrrolidin-1-yl)-pyridin-3-yl]-N-methyl-isobutyramide] |
